Values after ≈ are worked out from the molar mass of the structure shown. Like-named read-outs stand apart in the source and are kept apart here.
Legend:
M. abscessus Bamboo [1] = experiment: MIC assay in 96-well plate format; format: cell-based, M. abscessus subsp. abscessus; conditions: Mycobacteroides abscessus
[2] = system: M. abscessus subsp. massiliense CCUG 48898T; experiment: MIC assay in 96-well plate format; format: cell-based; conditions: Mycobacteroides abscessus, culture collection reference strain
[3] = system: M. abscessus subsp. bolletii CCUG 50184T; experiment: MIC assay in 96-well plate format; format: cell-based; conditions: Mycobacteroides abscessus, culture collection reference strain
[4] = system: M. abscessus subsp. abscessus M9; experiment: MIC assay in 96-well plate format; format: cell-based; conditions: Mycobacteroides abscessus; M. abscessus subsp. abscessus M9, clinical isolate
[5] = system: M. abscessus subsp. abscessus M199; experiment: MIC assay in 96-well plate format; format: cell-based; conditions: Mycobacteroides abscessus; M. abscessus subsp. abscessus M199, clinical isolate
[6] = system: M. abscessus subsp. abscessus K21; experiment: MIC assay in 96-well plate format; format: cell-based; conditions: Mycobacteroides abscessus; M. abscessus subsp. abscessus K21, clinical isolate, infection model
M. chimaera CCUG 50989T = experiment: MIC assay in 96-well plate format; format: cell-based; conditions: CCUG50989T, culture collection reference strain
[7] = system: M. abscessus Bamboo biofilms; experiment: Biofilm growth inhibition assay (biofilm MIC and MBC); format: cell-based, M. abscessus subsp. abscessus; conditions: Mycobacteroides abscessus
Experimental: The biofilm growth inhibition assay was performed as previously described ([40]). Innovotech MBEC 96-well biofilm assay plates (Innovotech 19111, Edmonton, AB, Canada) were used, and the supplier’s manual was followed with minor modifications. Mid-log-phase M. abscessus Bamboo precultures (OD600 = 0.4 to 0.6) were spun down at 3200 × g for 10 min at 25°C and washed with 7H9 medium without Tween 80 (7H9nt). Bacteria were resuspended into 25 ml 7H9nt to an OD600 of 0.0125 (1.0 × 10^6 CFU/ml). […] The lids with the pegs were transferred to a new MBEC multititer plate containing 150 μl of fresh 7H9nt medium per well without bacteria (0 h time point). After that, the pegs with growing biofilm were transferred once a day to a new multititer plate containing fresh 7H9nt medium. To measure growth of the biofilm formed on the peg, the pegs were washed in 200 μl of 7H9nt medium before they were aseptically removed and placed in 1.7 ml microcentrifuge tubes (VWR 87003-294, Rador, PA, United States) containing 500 μl PBS/Tween 80. The microcentrifuge tubes were vigorously vortexed at 2,000 rpm for 90 s at 25°C to detach the bacteria from the pegs before samples were serially diluted and plated for the determination of CFU/peg. […] The average drug-free biofilm growth was calculated by subtracting the average 24 h CFU/peg value from the average 72 h CFU/peg value for the untreated control pegs. The biofilm MIC was defined as the lowest drug concentration that reduced the CFU/peg by 90% relative to that of the average drug-free biofilm growth.

[8] = system: M. abscessus Bamboo RM1 (LeuS A428P); experiment: microbe, parasite or virus in culture; format: cell-based; conditions: Mycobacteroides abscessus
M. abscessus Bamboo [9] = format: cell-based
[10] = AMP (artificial membrane permeability) assay; format: in vitro ADME; conditions: PAMPA, pH 7.4
Experimental: An 8% L-α-phosphatidylcholine (EPC) in 1% cholesterol decane solution and a 1.8% EPC in cholesterol decane solution were prepared. The lipid solution was then aliquoted into 4 ml capped vials, sealed with parafilm, and stored in a −20°C freezer. The lipid solution was then transferred from 4 ml vial into a 96-well half area plate (130 μl/well) for daily assay usage. An additional 50 mM phosphate buffer with 0.5% encapsin (pH 7.4) was prepared. The assay was run by the Biomek FX and Biomek software. The assay procedure is written under the Biomek software. For one batch assay, it can test two 96-well sample plates with at least one standard on each sample plate. The total assay time was about 4 h. A total of 3.5 μl of lipid solution was added to the filler plate and shaken for 12 s, 250 μl of buffer was added to the donor side, and 100 μl of buffer was added to the receiver side. The assay plate was shaken for 45 min before adding the compounds. The test compounds (2.5 μl) were added to the donor side. The assay was run as replicates: assay plates 1 and 2 tested sample plate 1, and assay plates 3 and 4 tested sample plate 2. The assay plates were then incubated and shaken for 3 h at room temperature. […] Compound concentration was measured by HPLC at different time points.

[11] = system: M. abscessus subsp. abscessus K21; experiment: M. abscessus mouse infection model; format: in vivo; conditions: NOD SCID mice, intranasal infection, 10 mg/kg orally once daily for 10 days, day 11
Experimental: In vivo efficacy determinations were carried out as described previously, using 8-week-old female NOD.CB17-Prkdc^scid/NCrCrl (NOD SCID) mice (Charles River Laboratories) and the M. abscessus subsp. abscessus K21 strain ([38]). Briefly, anesthetized animals were infected by intranasal delivery of ∼10^6 CFU of M. abscessus subsp. abscessus K21. Acute infection was achieved within 1 day. Drugs or the vehicle control were administered to NOD SCID mice once daily for 10 consecutive days by oral gavage, starting from 1 day postinfection. Clarithromycin was formulated in 0.4% methyl cellulose-sterile water and administered at a dose of 250 mg/kg. EC/11770 was formulated in 0.4% methyl cellulose-sterile water and administered at 10 mg/kg. All mice were euthanized 24 h after the last dose (11 days postinfection), and their lungs and spleen were aseptically removed prior to homogenization. The bacterial load in these organs was determined by plating serial dilutions of the organ homogenates onto Middlebrook 7H11 agar (BD Difco) supplemented with 0.2% (vol/vol) glycerol and 10% (vol/vol) oleic acid-albumin-dextrose-catalase (OADC). The agar plates were incubated for 5 days at 37°C prior to counting of colonies. […]

`CC(C)(O)COc1ccc(Br)c2c1B(O)O[C@@H]2CN` [EC/11770] showed an MIC (M. abscessus Bamboo [1]) of 0.9 µM (≈ 0.297 µg/mL), an MIC (M. abscessus Bamboo [1]; 72 h, M. abscessus Bamboo, 7H9, 3 days, read-out: MIC) of 1.2 µM (≈ 0.396 µg/mL) and an MIC (M. abscessus Bamboo [1]; 72 h, M. abscessus Bamboo, CAMH broth, 3 days, read-out: MIC) of 0.7 µM (≈ 0.231 µg/mL). It also gave an MIC [2] of 0.71 µM (≈ 0.234 µg/mL), an MIC [3] of 1.3 µM (≈ 0.429 µg/mL) and an MIC [4] of 0.49 µM (≈ 0.162 µg/mL). The MIC [5] was 0.93 µM (≈ 0.307 µg/mL), the MIC [6] was 0.6 µM (≈ 0.198 µg/mL) and the MIC (M. chimaera CCUG 50989T) was 1.7 µM (≈ 0.561 µg/mL). For the same molecule, the MBC ([7]; 10-fold CFU/peg reduction vs 24 h) was 50 µM (≈ 16.5 µg/mL), the MIC ([7]; 48 h with drug, 90% reduction of CFU/peg growth) was 3.1 µM (≈ 1.02 µg/mL) and the MIC [8] was greater than 100 µM. The frequency of resistance (M. abscessus Bamboo [9]) was 3.9 × 10^−8 /CFU, the Papp at 3 h [10] was 27.5 ×10⁻⁶ cm/s and the “reduction in lung CFU” value [11] was 1.5 log.

From publication PMC8092876, “A Leucyl-tRNA Synthetase Inhibitor with Broad-Spectrum Antimycobacterial Activity” (Antimicrobial Agents and Chemotherapy, 2021)
